Laboratory results: article PMC5481569, “A Bacteroidetes locus dedicated to fungal 1,6-β-glucan degradation: Unique substrate conformation drives specificity of the key endo-1,6-β-glucanase” (The Journal of Biological Chemistry, 2017)

Columns and labels:
BT3311 = target: T1, BT3311 (Bacteroides thetaiotaomicron, UniProt Q8A2J4); experiment: isothermal titration calorimetry; format: binding; details: 50 mM Na-Hepes, pH 7.5, 25 °C
T1 construct: gene BT_3311; signal peptide (lipoprotein) removed; N-terminal hexahistidine tag; pET28 derivative, E. coli
T1 sequence (Q8A2J4 22-506): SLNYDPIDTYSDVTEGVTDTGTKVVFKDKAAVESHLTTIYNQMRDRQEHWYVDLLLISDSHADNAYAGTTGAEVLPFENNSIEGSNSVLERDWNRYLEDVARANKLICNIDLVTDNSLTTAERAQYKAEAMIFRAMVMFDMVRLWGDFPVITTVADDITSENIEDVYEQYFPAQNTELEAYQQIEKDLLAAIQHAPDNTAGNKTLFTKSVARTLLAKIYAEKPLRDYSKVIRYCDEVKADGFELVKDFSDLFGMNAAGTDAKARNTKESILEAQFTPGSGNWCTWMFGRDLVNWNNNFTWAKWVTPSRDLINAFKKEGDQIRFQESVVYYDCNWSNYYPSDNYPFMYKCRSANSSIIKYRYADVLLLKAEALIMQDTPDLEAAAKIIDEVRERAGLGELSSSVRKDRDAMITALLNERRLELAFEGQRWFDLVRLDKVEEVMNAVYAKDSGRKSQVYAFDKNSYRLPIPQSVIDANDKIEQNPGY
Excerpt: isothermal titration calorimetry on BT3311

BT3313 = target: T2, BT3313 (Bacteroides thetaiotaomicron, UniProt Q8A2J2); experiment: isothermal titration calorimetry; format: binding; details: 50 mM Na-Hepes, pH 7.5, 25 °C
T2 construct: gene BT_3313; signal peptide (lipoprotein) removed; N-terminal hexahistidine tag; pET28 derivative, E. coli
T2 sequence (Q8A2J2 20-667): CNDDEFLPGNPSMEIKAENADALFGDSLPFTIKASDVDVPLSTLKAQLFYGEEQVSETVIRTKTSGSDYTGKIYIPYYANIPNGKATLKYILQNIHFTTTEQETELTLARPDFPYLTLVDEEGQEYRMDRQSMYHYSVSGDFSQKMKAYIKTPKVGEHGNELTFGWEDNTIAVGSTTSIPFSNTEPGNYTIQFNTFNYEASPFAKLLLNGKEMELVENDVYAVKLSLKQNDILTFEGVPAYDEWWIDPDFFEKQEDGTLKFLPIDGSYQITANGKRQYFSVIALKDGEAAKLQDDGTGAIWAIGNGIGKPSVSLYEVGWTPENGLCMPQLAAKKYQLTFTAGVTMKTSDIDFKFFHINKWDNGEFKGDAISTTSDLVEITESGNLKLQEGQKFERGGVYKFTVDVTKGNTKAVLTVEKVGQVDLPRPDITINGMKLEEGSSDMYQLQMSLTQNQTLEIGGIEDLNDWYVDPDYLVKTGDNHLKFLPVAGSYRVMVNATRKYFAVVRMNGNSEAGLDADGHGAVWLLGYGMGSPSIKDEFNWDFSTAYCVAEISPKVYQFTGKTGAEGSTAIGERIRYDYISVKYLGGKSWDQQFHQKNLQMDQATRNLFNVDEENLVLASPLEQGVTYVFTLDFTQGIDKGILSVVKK
Excerpt: isothermal titration calorimetry on BT3313

BT3312 = target: T3, BT3312 (Bacteroides thetaiotaomicron, UniProt Q8A2J3); experiment: glucose release from […]-β-glucotriose (D-glucose detection kit); also crystal structure, […] Å; format: biochemical
T3 construct: gene BT_3312; signal peptide (lipoprotein) removed; N-terminal hexahistidine tag; pET28 derivative, E. coli Tuner; residues 82-427 form the TIM barrel domain
T3 sequence (Q8A2J3 22-496): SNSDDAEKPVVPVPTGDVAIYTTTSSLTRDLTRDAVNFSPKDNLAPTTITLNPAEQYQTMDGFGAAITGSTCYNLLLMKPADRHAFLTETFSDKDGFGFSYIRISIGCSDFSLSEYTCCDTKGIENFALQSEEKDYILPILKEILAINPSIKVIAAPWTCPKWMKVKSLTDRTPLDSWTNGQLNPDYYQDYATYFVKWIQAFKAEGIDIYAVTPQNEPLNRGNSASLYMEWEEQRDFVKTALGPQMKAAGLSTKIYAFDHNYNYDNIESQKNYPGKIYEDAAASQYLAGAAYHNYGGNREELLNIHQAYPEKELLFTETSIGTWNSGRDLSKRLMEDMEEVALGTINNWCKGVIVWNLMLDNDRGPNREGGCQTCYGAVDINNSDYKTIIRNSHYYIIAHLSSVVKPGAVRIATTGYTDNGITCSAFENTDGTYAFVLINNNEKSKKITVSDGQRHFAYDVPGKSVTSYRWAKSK

Compound: OC[C@H]1O[C@@H](OC[C@H]2O[C@@H](OC[C@H]3O[C@@H](OC[C@H]4O[C@@H](OC[C@H]5O[C@@H](OC[C@H]6O[C@@H](OC[C@H]7OC(O)[C@H](O)[C@@H](O)[C@@H]7O)[C@H](O)[C@@H](O)[C@@H]6O)[C@H](O)[C@@H](O)[C@@H]5O)[C@H](O)[C@@H](O)[C@@H]4O)[C@H](O)[C@@H](O)[C@@H]3O)[C@H](O)[C@@H](O)[C@@H]2O)[C@H](O)[C@@H](O)[C@@H]1O (stereo partly drawn) [1,6-β-Glucoheptaose]
- Ka (BT3311): 2.1 × 10^4 ± 0.1
- Ka (BT3313): 1.5 × 10^4 ± 0.2

Compound: OC[C@H]1O[C@@H](OC[C@H]2O[C@@H](OC[C@H]3O[C@@H](OC[C@H]4O[C@@H](OC[C@H]5O[C@@H](OC[C@H]6OC(O)[C@H](O)[C@@H](O)[C@@H]6O)[C@H](O)[C@@H](O)[C@@H]5O)[C@H](O)[C@@H](O)[C@@H]4O)[C@H](O)[C@@H](O)[C@@H]3O)[C@H](O)[C@@H](O)[C@@H]2O)[C@H](O)[C@@H](O)[C@@H]1O (stereo partly drawn) [1,6-β-Glucohexaose]
- Ka (BT3311): 1.6 × 10^4 ± 0.1
- Ka (BT3313): 8.0 × 10^3 ± 0.7

Compound: OC[C@H]1O[C@@H](OC[C@H]2O[C@@H](OC[C@H]3O[C@@H](OC[C@H]4O[C@@H](OC[C@H]5OC(O)[C@H](O)[C@@H](O)[C@@H]5O)[C@H](O)[C@@H](O)[C@@H]4O)[C@H](O)[C@@H](O)[C@@H]3O)[C@H](O)[C@@H](O)[C@@H]2O)[C@H](O)[C@@H](O)[C@@H]1O (stereo partly drawn) [1,6-β-Glucopentaose]
- Ka (BT3311): 8.3 × 10^3 ± 0.3
- Ka (BT3313): 3.6 × 10^3 ± 0.2

Compound: OC[C@H]1O[C@@H](OC[C@H]2NC[C@H](O)[C@@H](O)[C@@H]2O)[C@H](O)[C@@H](O)[C@@H]1O [compound 5, β-D-Glucopyranosyl-1,6-deoxynojirimycin]
- Ki (BT3312): ~1000 µM
